Source: the METLIN SMRT retention time set (Domingo-Almenara et al. 2019)

experiment: gradient 5% acetonitrile 3 min, to 50% in 2 min, to 85% in 15 min, held 3 min, 100 µL/min; details: column: Zorbax Extend-C18 2.1 x 50 mm; eluents: water / acetonitrile, 0.1% formic acid
Summary of the method: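 Retention times of pure standards were taken from adduct peaks that were selected by computer and manually inspected. Over 3 months, mixtures of ~100 molecules were run by HPLC–quadrupole time-of-flight mass spectrometry in positive and negative ionization mode. The Zorbax Extend-C18 column (2.1 × 50 mm, 1.8 μm) ran at 100 μL/min in water and acetonitrile, each containing 0.1% formic acid, with 40 μL dead volume and 900 μL dwell volume.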

Structure (SMILES) | RP-LC retention time [s]
CCN1C(=O)C2CC3(CCN(C(=O)CC(C)C)CC3)CN2C1=O (stereo unspecified) | 692
COc1ccc(/C=C/c2cc(O)cc(OC3OC(CO)C(O)C(O)C3O)c2)cc1O (stereo unspecified) | 612
CCOC(=O)c1nc(Nc2ccc(F)cc2Cl)c2ccccc2n1 | 890
Cn1cccc1CN(C(=O)c1ccc(F)cc1Cl)C1CC1 | 915
CCN1CCC2(CC1)OC(=O)C(C)=C2C(=O)NCCCN1CCN(c2cc(C)ccc2C)CC1 | 586
CCC(C(=O)Nc1ccc(C)cc1)n1cnc2nc3c(cc2c1=O)CCCC3 (stereo unspecified) | 756
Cc1ccc(Nc2c(-c3c(F)cccc3Cl)nc3ccc(Cl)cn23)cc1 | 994
CC(C)CCNC(=O)C1CCN(c2cnn(Cc3ccccc3)c(=O)c2)CC1 | 790
COc1ccc(-c2c(C)noc2NC(C)=O)cc1S(=O)(=O)Nc1ccc(Cl)cc1F | 807
Cc1ccc(CNC(=O)Cn2cnc3nc4c(cc3c2=O)CCCC4)cc1 | 728
Cc1cccc2nnc(N3CCN(C(=O)c4cccc(Cl)c4)CC3)n12 | 584
CC(C)S(=O)(=O)c1ccc(CC(=O)N(Cc2cccs2)Cc2cccn2C)cc1 | 877
O=C(CN1CCN(Cc2ccccc2)C1=O)NCc1ccc(F)cc1Cl | 833
CC(C)Oc1ccc(-c2noc(CN3N=NC4C(=O)N(c5cccc(F)c5)C(=O)C43)n2)cc1 (stereo unspecified) | 1050
Cc1nc(NC(=O)CCn2cnc3ccccc3c2=O)sc1C(=O)N(C)C | 589
CCOCCCNC(=O)c1cc2sc(C)cc2n1C | 861
COC(=O)c1ccc2c(=O)n(-c3cccc(OC)c3)c(N3CCN(c4ccccn4)CC3)nc2c1 | 705
COc1cccc(CN2N=C(C(=O)N3CCOCC3)S(=O)(=O)c3ccc(Cl)cc32)c1 | 887
Cn1c(=O)c(N2CCCC(C(=O)NCCCN3CCC(N4CCCCC4)CC3)C2)nc2cccnc21 (stereo unspecified) | 568
CCOC(=O)c1c(N)n(-c2ccccc2OC)c2nc3ccccc3nc12 | 691
CCc1ccccc1NC(=O)N1CCN(C2=CC3=NC(CC)CN3C=N2)CC1 (stereo unspecified) | 642

Structure (SMILES) | RP-LC retention time [s]
CC(C)c1ccc(NC(=O)CN2C(=O)C3CCCCN3c3ccc(S(=O)(=O)N(C)C)cc32)cc1 (stereo unspecified) | 955
CN(C)C(=O)c1ccc2c(c1)nnn2CCNC(=O)Nc1ccc(Br)cc1F | 703
CC1CCC(C(=O)Nc2cc3c(cc2N2CCOCC2)n(C)c(=O)c(=O)n3C)CC1 (stereo unspecified) | 782
COc1ccc(OC)c2sc(NC(=O)c3ccc(Cl)s3)nc12 | 990
COc1ccc(-c2noc(C3CCCN3C(=O)Nc3ccc(OC)c(OC)c3)n2)cc1 (stereo unspecified) | 952
CCOC(=O)c1sc2nc(C)cc(C)c2c1N(C(C)=O)C(C)=O | 860
O=C(NCc1cccc(F)c1)c1ccc2c(c1)Sc1ncccc1C(=O)N2C1CC1 | 823
COc1ccc(-c2nc(C)cc(C)c2CNC(=O)C2CCC2)cc1 | 584
COC(=O)[C@H]1[C@H]2C[C@@H]3c4[nH]c5cc(OC)ccc5c4CCN3C[C@H]2C[C@@H](OC(=O)CC(C)=O)[C@@H]1OC | 731
CN(C(=O)c1cn(-c2ccc(-c3nc(C4CC4)no3)cn2)cn1)C1CCCCC1 | 971
CCCn1c(=O)sc2cc(S(=O)(=O)N3CCC(C(=O)NCc4ccc(C)o4)CC3)ccc21 | 960
O=C(Cn1ccc2ccc(N3CCOCC3)nc21)NCc1ccccc1Cl | 905
Cc1[nH]nc(-c2c(C)sc(C)c2S(=O)(=O)NCc2ccc(Br)cc2)c1C | 1130
CCC(C)NC(=O)Cn1cccc(-c2nc(-c3ccc(C)cc3)no2)c1=O (stereo unspecified) | 814
O=C(CCC(=O)N1CCNc2ccccc2C1)N1CCOCC1 | 585
COc1ccc(NC(=O)CN2C(=O)NC3(CCC(C)CC3)C2=O)c(OC)c1 (stereo unspecified) | 827
O=C(Nc1cccn2c(C3CCC3)nnc12)c1ccncc1 | 665
CCOCCCNC(=O)c1cc2n(n1)CCCN(Cc1cccc(C)c1)C2=O | 780
Cn1nc(-c2ccccc2F)c2cc(C(=O)N3CCN(c4ccccn4)CC3)sc21 | 654
CC(=O)N[C@@H]1CN(C(=O)c2ccc3ncccc3c2)C[C@H]1CO | 536
CC(C)OCCCNC(=O)CCc1nnc2c3cc(-c4ccccc4)nn3ccn12 | 690

The next lines start with the values.

RP-LC retention time [s] | Structure (SMILES)
782 | CCOCCCNC(=O)c1c(N2CCCC2=O)c2cc(C)ccc2n1C
874 | Cc1nc(C(=O)NCc2ccc(F)cc2Cl)c(C)o1
1000 | CCSc1nnc(-c2nn(C)c3c2CN(S(=O)(=O)c2ccc(C)c(F)c2)CC3)n1CC
1010 | CC(C)Cc1ccc(S(=O)(=O)N(C)CC2CCOCC2)cc1
582 | O=c1cc(-c2ccccc2)nc2n1CCN2CCCN1CCOCC1
658 | O=C(c1nnc(-c2ccc(S(=O)(=O)N3CCCC3)cc2)o1)N1CCN(C2CCCCC2)CC1
807 | O=C(Cc1c[nH]c2ccccc12)NC1(c2nc(-c3ccncc3)no2)CCCCC1
746 | O=C(c1cccnn1)N1CC(F)(F)C[C@H]1c1nnc(-c2ccccc2)o1
674 | COc1cccc2cc(C(=O)NCCn3nc(C)cc3C)oc12
764 | N#Cc1cccc(Cn2cc(S(=O)(=O)N3CCCC3)ccc2=O)c1
935 | CCOc1ccccc1NC(=O)N1CCC(n2cnc3cc(Cl)ccc3c2=O)CC1
647 | CCOC(=O)[C@H](CCc1ccccc1)N[C@@H](C)C(=O)N1CCC[C@@H]1C(=O)O
919 | CN1c2cc(F)ccc2C(=O)NC12CCN(C(=O)Cc1ccc(Cl)cc1)CC2
965 | CCc1nc(-n2cccc2)sc1C(=O)Nc1ccc(OC)c(OC)c1
636 | CCCc1cc(N2CCN(C(=O)c3cccn3C)CC2)nc2nnc(CC)n12
607 | CCN1CCN(CCCNC(=O)c2sc3ncccc3c2-n2c(C)ccc2C)CC1
668 | O=C(c1ccoc1)N1CC(F)(F)C[C@H]1c1nnc(-c2ccncc2)o1
702 | CCn1ccc2sc(C)c(C(=O)O)c2c1=O
586 | Cn1cnc2cc(CNC(=O)C3CCCC3)ccc21
967 | COc1ccc(N2CCN(c3cc(SCC(=O)Nc4ccc(OC)c(Cl)c4)ncn3)CC2)cc1
663 | O=C(c1ccsc1)N1CCC(c2nncn2Cc2ccccc2)CC1
657 | CC1(C(=O)NC2CCCC2)Cn2c(ccc2-c2ccco2)C(=O)N1Cc1cccnc1 (stereo unspecified)
984 | CCc1nc(-c2csc(S(=O)(=O)N3CCC(C(=O)NCc4ccccc4Cl)CC3)c2)no1
825 | O=C(NCCc1cccs1)c1nc(Nc2ccc(F)cc2)c2ccccc2n1
